Results as given in patent US20110086759A1, “CHEMICAL COMPOUNDS” (SYNGENTA CROP PROTECTION, INC., priority 2007, published 2011).

Experiments:
Format in all cases: in vivo
[1] = test system: Alopecurus myosuroides (ALOMY); test: Pre-emergence biological efficacy, glasshouse pot test; conditions: 312 h
Outline: (§1)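 Test compound, formulated in acetone/water (50:50) containing 0.5% Tween 20 and diluted into an aqueous spray, was applied at 1000 or 250 g/ha to pots sown one day earlier. Injury was rated after 13 days, 100 meaning total damage.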

[2] = test system: Amaranthus retoflexus (AMARE); test: as above; conditions: Amaranthus retroflexus, 312 h
Outline: as §1

[3] = test system: Echinochloa crus-galli (ECHCG); test: as above; conditions: 312 h
Outline: as §1

[4] = test system: Ipomea hederaceae (IPOHE); test: as above; conditions: Ipomoea hederacea, 312 h
Outline: as §1

[5] = test system: Setaria faberi (SETFA); test: as above; conditions: 312 h
Outline: as §1

[6] = test system: Solanum nigrum (SOLNI); test: as above; conditions: 312 h
Outline: as §1

[7] = test system: Alopecurus myosuroides (ALOMY); test: Post-emergence biological efficacy, glasshouse pot test; conditions: 312 h
Outline: (§2)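 Plants were sown in standard soil and grown 8 days in a glasshouse (24/16° C. day/night, 14 hours light, 65% humidity), then sprayed post-emergence at 1000 or 250 g/ha from acetone/water (50:50) with 0.5% Tween 20. Damage was scored visually after 13 days (0 = none, 100 = total).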

[8] = test system: Amaranthus retoflexus (AMARE); test: as above; conditions: Amaranthus retroflexus, 312 h
Outline: as §2

[9] = test system: Echinochloa crus-galli (ECHCG); test: as above; conditions: 312 h
Outline: as §2

[10] = test system: Ipomea hederaceae (IPOHE); test: as above; conditions: Ipomoea hederacea, 312 h
Outline: as §2

[11] = test system: Setaria faberi (SETFA); test: as above; conditions: 312 h
Outline: as §2

[12] = test system: Solanum nigrum (SOLNI); test: as above; conditions: 312 h
Outline: as §2

[13] = pre-emergence, rate 1,000 g/ha, evaluated after 13 days (100=total damage to plant; 0=no damage), read-out: Percentage damage caused to weed species, ALOMY
[14] = pre-emergence, rate 1,000 g/ha, evaluated after 13 days (100=total damage to plant; 0=no damage), read-out: Percentage damage caused to weed species, AMARE
[15] = pre-emergence, rate 1,000 g/ha, evaluated after 13 days (100=total damage to plant; 0=no damage), read-out: Percentage damage caused to weed species, ECHCG
[16] = pre-emergence, rate 1,000 g/ha, evaluated after 13 days (100=total damage to plant; 0=no damage), read-out: Percentage damage caused to weed species, IPOHE
[17] = pre-emergence, rate 1,000 g/ha, evaluated after 13 days (100=total damage to plant; 0=no damage), read-out: Percentage damage caused to weed species, SETFA
[18] = pre-emergence, rate 1,000 g/ha, evaluated after 13 days (100=total damage to plant; 0=no damage), read-out: Percentage damage caused to weed species, SOLNI
[19] = Rate 1,000 g/ha, post-emergence spray, evaluated after 13 days (100=total damage to plant; 0=no damage to plant), read-out: Percentage damage caused to weed species, post-emergence, ALOMY
[20] = Rate 1,000 g/ha, post-emergence spray, evaluated after 13 days (100=total damage to plant; 0=no damage to plant), read-out: Percentage damage caused to weed species, post-emergence, AMARE
[21] = Rate 1,000 g/ha, post-emergence spray, evaluated after 13 days (100=total damage to plant; 0=no damage to plant), read-out: Percentage damage caused to weed species, post-emergence, ECHCG
[22] = Rate 1,000 g/ha, post-emergence spray, evaluated after 13 days (100=total damage to plant; 0=no damage to plant), read-out: Percentage damage caused to weed species, post-emergence, IPOHE
[23] = Rate 1,000 g/ha, post-emergence spray, evaluated after 13 days (100=total damage to plant; 0=no damage to plant), read-out: Percentage damage caused to weed species, post-emergence, SETFA
[24] = Rate 1,000 g/ha, post-emergence spray, evaluated after 13 days (100=total damage to plant; 0=no damage to plant), read-out: Percentage damage caused to weed species, post-emergence, SOLNI
[25] = pre-emergence, 1,000 g/ha, evaluated after 13 days (100=total damage; 0=no damage), read-out: Percentage damage ALOMY
[26] = pre-emergence, 1,000 g/ha, evaluated after 13 days (100=total damage; 0=no damage), read-out: Percentage damage AMARE
[27] = pre-emergence, 1,000 g/ha, evaluated after 13 days (100=total damage; 0=no damage), read-out: Percentage damage ECHCG
[28] = pre-emergence, 1,000 g/ha, evaluated after 13 days (100=total damage; 0=no damage), read-out: Percentage damage IPOHE
[29] = pre-emergence, 1,000 g/ha, evaluated after 13 days (100=total damage; 0=no damage), read-out: Percentage damage SETFA
[30] = pre-emergence, 1,000 g/ha, evaluated after 13 days (100=total damage; 0=no damage), read-out: Percentage damage SOLNI
[31] = post-emergence, 1,000 g/ha, evaluated after 13 days (100=total damage; 0=no damage), read-out: Percentage damage caused to weed species, ALOMY
[32] = post-emergence, 1,000 g/ha, evaluated after 13 days (100=total damage; 0=no damage), read-out: Percentage damage caused to weed species, AMARE
[33] = post-emergence, 1,000 g/ha, evaluated after 13 days (100=total damage; 0=no damage), read-out: Percentage damage caused to weed species, ECHCG
[34] = post-emergence, 1,000 g/ha, evaluated after 13 days (100=total damage; 0=no damage), read-out: Percentage damage caused to weed species, IPOHE
[35] = post-emergence, 1,000 g/ha, evaluated after 13 days (100=total damage; 0=no damage), read-out: Percentage damage caused to weed species, SETFA
[36] = post-emergence, 1,000 g/ha, evaluated after 13 days (100=total damage; 0=no damage), read-out: Percentage damage caused to weed species, SOLNI

Structure (SMILES)	pest or weed control at 1000 g/ha [1, 13]	pest or weed control at 1000 g/ha [2, 14]	pest or weed control at 1000 g/ha [3, 15]	pest or weed control at 1000 g/ha [4, 16]	pest or weed control at 1000 g/ha [5, 17]	pest or weed control at 1000 g/ha [6, 18]	pest or weed control at 1000 g/ha [7, 19]	pest or weed control at 1000 g/ha [8, 20]	pest or weed control at 1000 g/ha [9, 21]	pest or weed control at 1000 g/ha [10, 22]	pest or weed control at 1000 g/ha [11, 23]	pest or weed control at 1000 g/ha [12, 24]	pest or weed control at 1000 g/ha [1, 25]	pest or weed control at 1000 g/ha [2, 26]	pest or weed control at 1000 g/ha [3, 27]	pest or weed control at 1000 g/ha [4, 28]	pest or weed control at 1000 g/ha [5, 29]	pest or weed control at 1000 g/ha [6, 30]	pest or weed control at 1000 g/ha [7, 31]	pest or weed control at 1000 g/ha [8, 32]	other results
COC(=O)c1nc(-c2ccc(Cl)c(Cl)c2F)nc(NCc2ccco2)c1Cl [Compound 226-48, 5-Chloro-2-(3,4-dichloro-2-fluorophenyl)-4-(furan-2-ylmethyl-amino)-6-methoxy-carbonylpyrimidine]	50%	100%	30%	30%	40%	100%	50%	100%	60%	60%	80%	90%									
COC(=O)c1nc(C2CC2)nc(N(C)CCc2ccccc2)c1Cl [Compound 5-221, 5-Chloro-2-cyclopropyl-6-methoxycarbonyl-4-[(N-methyl)-N-(2-phenylethyl)-amino]pyrimidine]	0%	30%	0%	40%	0%	30%	10%	100%	30%	100%	40%	80%									
COC(=O)c1nc(C2CC2)nc(NCc2ccccc2C)c1Cl [Compound 4-71, 5-Chloro-2-cyclopropyl-6-methoxycarbonyl-4-(2-methylphenyl-methylamino)-pyrimidine]													20%	90%	20%	70%	20%	20%	20%	100%	pest or weed control at 1000 g/ha [9, 33]: 60%; pest or weed control at 1000 g/ha [10, 34]: 100%; pest or weed control at 1000 g/ha [11, 35]: 80%; pest or weed control at 1000 g/ha [12, 36]: 90%
C=CCCN(Cc1ccccc1)c1nc(C2CC2)nc(C(=O)OC)c1Cl [Compound 154-60, 4-(N-But-3-enyl-N-phenylmethyl-amino)-5-chloro-2-cyclopropyl-6-methoxycarbonyl-pyrimidine]	0%	40%	0%	0%	0%	0%	20%	60%	20%	80%	30%	50%									
COC(=O)c1nc(C2CC2)nc(NCC2(OC)C=CC(OC)O2)c1Cl (stereo not drawn) [Compound 4-55, 5-Chloro-2-cyclopropyl-4-[(2,5-dihydro-2,5-dimethoxy-furan-2-yl)methylamino]-6-methoxycarbonyl-pyrimidine]													0%	100%	0%	60%	0%	10%	10%	100%	pest or weed control at 1000 g/ha [9, 33]: 0%; pest or weed control at 1000 g/ha [10, 34]: 50%; pest or weed control at 1000 g/ha [11, 35]: 30%; pest or weed control at 1000 g/ha [12, 36]: 80%
COC(=O)c1nc(C2CC2)nc(N(CCO)Cc2ccc(Cl)nc2)c1Cl [Compound 157-157, 5-Chloro-4-[N-(6-chloropyrid-3-ylmethyl)-N-2-hydroxyethyl-amino]-2-cyclopropyl-6-methoxycarbonyl-pyrimidine]	10%	100%	20%	40%	30%	100%	0%	50%	0%	50%	0%	30%									
